Test results from US20150064230A1, “SUSTAINED RELEASE DELIVERY OF ONE OR MORE AGENTS” (Mati Therapeutics Inc., priority 2009, published 2015).

Tests used:
[1] = Elution of latanoprost from silicone drug cores with excipients in PBS (FIGS. 9-12); format: physicochemical; settings: 37° C., 100 cpm, 10% glycerol, 5% PEG400, 7.3 wt % DMPC or EPG in Formulations 1 and 2
Method: The silicone formulation (MED6385) is a two part system. Part A contains the silicone and crosslinker while Part B contains the tin catalyst to promote crosslinking. The two parts are combined in a final ratio of 200:1 (Part A: Part B). The required amounts of Latanoprost, the selected excipient (DMPC or EPG), the crosslinker, MED6385 Part A and B are weighed onto a glass slide and mixed for approximately 2 minutes using a plastic mini spatula. Quantities used in the preparation of specific examples are shown below.
After the silicone/latanoprost mixing is complete, the mixture is loaded in the barrel of the syringe extrusion system. The plunger is inserted and excess air is removed. The syringe is then loaded into the extrusion apparatus.
After setup, the extrusion system activated and a silicone latanoprost mixture is extruded down the length of the polyimide tubing. Once the mixture reaches the bottom of the tubing, the tubing is cut using a razor blade and clamped on both ends.
The clamped section of tubing is placed in a humidity chamber to be cured.
Samples, including those shown in FIGS. 9-12, were analyzed for elution by immersion in a PBS (phosphate buffered saline) elution medium. Temperature was maintained at 37° C. with 100 cpm shaking. The elution medium was changed daily (except weekends) for the first two weeks and weekly thereafter. Elution media samples were analyzed by reversed-phase chromatography. Samples were prepared for HPLC analysis by adding 200 μL of internal standard solution (2.4 μg/mL of butylated hydroxyanisole in isopropanol) and vortexing to mix. The amount of latanoprost eluted was determined using a reversed phase HPLC UV detection using a Waters SunFire C18, 3.5 μm, 3.0×100 mm column and detection conditions of the following: 1.0 mL/min flow rate, 200 μL injection volume, 210 nm detection wavelength, using gradient of solvents over a run time of 6 minutes (time zero=63% mobile phase A, 37% mobile phase B, time 4.9 minutes=35% A, 65% B, time 5 minutes=63% A, 37% B) comprising 0.1% Phosphoric Acid in Water (mobile Phase A) and ACN (mobile phase B), 50° C. column temperature set point.

[2] = after topical administration; studies in man; cited from earlier work
[3] = cited from earlier work
subjects = settings: clinical trials, cited from earlier work

With `CCCCCCCC/C=C\CCCCCCCC(=O)O[C@H](COC(=O)CCCCCCCCCCCCCCC)COP(=O)(O)OCC(O)CO` (stereo partly drawn) [POPG, palmitoyl oleoyl phosphatidylglycerol] the “release (elution) rate of latanoprost from silicone matrix with excipient relative to no excipient” value [1] was “increased elution rate”.
In the case of `CCCCCCCCCCCCCCCC(=O)OCC(COP(=O)(O)OCCN)OC(=O)CCCCCCCCCCCCCCC` (stereo not drawn) [DPPE, dipalmitoyl phosphatidylethanolamine], the “release (elution) rate of latanoprost from silicone matrix with excipient relative to no excipient” value [1] was “decreased elution rate”.
In the case of `CCCCCCCCCCCCCCCCCC(=O)OC[C@H](COP(=O)([O-])OCC[N+](C)(C)C)OC(=O)CCCCCCCCCCCCCCCCC` [DSPC, distearoyl phosphatidylcholine], the “release (elution) rate of latanoprost from silicone matrix with excipient relative to no excipient” value [1] was “decreased elution rate”.
In the case of `CCCCCCCCCCCCCC(=O)OCC(COP(=O)(O)OCC(O)CO)OC(=O)CCCCCCCCCCCCC` (stereo not drawn) [DMPG, dimyristoyl phosphatidylglycerol], the “release (elution) rate of latanoprost from silicone matrix with excipient relative to no excipient” value [1] was “increased elution rate”.
In the case of `CCCCCCCCCCCCCC(=O)OC[C@H](COP(=O)([O-])OCC[N+](C)(C)C)OC(=O)CCCCCCCCCCCCC` [DMPC, dimyristoyl phosphatidylcholine], the “release (elution) rate of latanoprost from silicone matrix with excipient relative to no excipient” value [1] was “increased elution rate”.
With `CCCCCCCCCCCCCCCCCC(=O)O[C@H](COC(=O)CCCCCCCCCCCCCCC)COP(=O)([O-])OCC[N+](C)(C)C` [PSPC, palmitoyl stearoyl phosphatidylcholine] the “release (elution) rate of latanoprost from silicone matrix with excipient relative to no excipient” value [1] was “decreased elution rate”.
With `OCC(O)CO` [glycerol] the “release (elution) rate of latanoprost from silicone matrix with excipient relative to no excipient” value [1] was “rate is increased relative to control”.
For `CC(C)OC(=O)CCC/C=C\C[C@@H]1[C@@H](CC[C@@H](O)CCc2ccccc2)[C@H](O)C[C@@H]1O` [latanoprost, isopropyl-(Z)-7[(1R,2R,3R,5S)3,5-dihydroxy-2-[(3R)-3-hydroxy-5-phenylpentyl]cyclopentyl]-5-heptenoate], the “time to peak concentration in the aqueous humor” value [2] is listed as “about two”, the “solubility in acetone, ethanol, ethyl acetate, isopropanol, methanol and octanol” value [3] is listed as “freely soluble” and the solubility in acetonitrile [3] is listed as “very soluble”. The “solubility in water” value [3] was “practically insoluble in water”, the aqueous solubility ([3]; in water at 25 degrees C.) was 50 micrograms/mL and the “aqueous solubility, by weight” value ([3]; in water at 25 degrees C.) was “about 0.005 % by weight”. The “conjunctivitis, diplopia, discharge from the eye, subjects” value (subjects; Xalatan product information) was “Less than 1%”, the “retinal artery embolus, retinal detachment, vitreous hemorrhage from diabetic retinopathy” value (subjects; Xalatan product information) was “rarely reported” and the “subjects requiring discontinuation of therapy because of intolerance to conjunctival hyperemia” value (subjects; Xalatan product information) was “Less than 1%”. The “systemic adverse events: upper respiratory tract infection/cold/flu, rate” value (subjects) was “approximately 4%”.
With `CCCCCCCCCCCCCCCC(=O)OC[C@H](COP(=O)([O-])OCC[N+](C)(C)C)OC(=O)CCCCCCCCCCCCCCC` [DPPC, dipalmitoyl phosphatidylcholine] the “release (elution) rate of latanoprost from silicone matrix with excipient relative to no excipient” value [1] was “decreased elution rate”.
